Data set [1] relates to HUP-T3 pancreatic cancer cells. Put plainly: Cellular proliferation of HUP-T3 pancreatic cancer cells in vitro. Type of data set: cell-based. To be noted: 10 μM AP12009 as monotherapy. The protocol: (§1) The aim of the study was to determine the effect of AP12009 (trabedersen) treatment in combination with 5-Fluorouracil (5-FU) on TGFβ2 secretion and on cellular proliferation of HUP-T3 pancreatic cancer cells and WiDr colon cancer cells in vitro.
(§2) 10 μM of AP12009 as monotherapy decreased cell proliferation (53% proliferation of untreated control) and TGFβ2 expression (42% of untreated control) in HUP-T3 cells.

Data set [2] relates to TGFβ2. As to the kind of experiment: TGFβ2 secretion/expression in HUP-T3 pancreatic cancer cells. The format is cell-based. Particulars: 10 μM AP12009 as monotherapy. As for the experimental part:
as §1, §2

The next data set relates to WiDr colon cancer cells. Put plainly: Cellular proliferation of WiDr colon cancer cells in vitro. To be noted: 10 μM AP12009. The format is cell-based.
Description: as §1

Data set [3] concerns TGFβ2. As to the kind of experiment: TGFβ2 secretion/expression in WiDr colon cancer cells. Type of data set: cell-based. Particulars: 10 μM AP12009.
Description: as §1

Data set [4] is described as follows: Acute single dose toxicity study in mice. The format is in vivo. Particulars: 1 of 10 mice died (LLD10). The protocol: The clinical starting dose for the 7-days-on and 7-days-off schedule was based on the Lowest-Observed-Adverse-Effect-Level (LOAEL) devoid of severe toxicity in Cynomolgus monkeys as the most relevant species. This LOAEL of 4 mg/kg body weight (b.w.)/day is equivalent to approximately 1.3 mg/kg b.w./day or 48 mg/m^2/day on a body surface area basis in human adults. These numbers were rounded down and the safe starting dose was defined at 40 mg/m^2/day, equivalent to approximately 1 mg/kg b.w./day in humans. An alternative approach would have been based on the lowest lethal dose (LLD) of 300 mg/kg b.w. obtained in the acute single dose toxicity study in mice (in rats it was determined at 1000 mg/kg), at which 1 of 10 mice died (LLD10). According to the standard method, 10% of this dose (30 mg/kg) on a body surface area basis would then be defined as the clinical starting dose resulting in 90 mg/m^2/day. In the end, the lower of the two alternatives was chosen as starting dose.

The test system of the next data set is melanoma. As to the kind of experiment: Phase I/II study P-001: PFS and OS in melanoma patients. Type of data set: in vivo, human. The protocol:
At screening, up to 10 “measurable lesions” (i.e. lesions that could be accurately measured in at least 1 dimension with a longest diameter of 2 cm) representative of all involved organs were identified as “target lesions” for tumor response assessment and were measured and documented. All other lesions were defined and recorded as “non-target lesions”. Tumor response was determined by the local investigator every 8 weeks after start of the first trabedersen cycle during follow-up visits, irrespective of whether the patient was still on treatment or off treatment. The tumor assessment was based on Response Evaluation Criteria in Solid Tumors (RECIST 1.0) criteria. The categories of overall tumor response are as follows: (1) Complete response (CR): disappearance of all target and non-target lesions and normalization of tumor marker level; (2) Partial response (PR): at least 30% decrease in the sum of the longest diameter (LD) of target lesions (baseline sum LD as reference) and/or persistence of one or more non-target lesions and/or maintenance of tumor marker level above normal limits; (3) Stable disease (SD): less than 30% decrease or less than 20% increase in sum LD target lesions (smallest sum LD since treatment start as reference) and/or persistence of one or more non-target lesions and/or maintenance of tumor marker level above normal limits; (4) Progressive disease (PD) At least 20% increase in sum LD target lesions (smallest sum LD since treatment start as reference) and/or unequivocal progression of existing nontarget lesions and/or appearance of one or more new lesions; and (5) Unknown.
Progression-free survival (PFS) was defined as the time from Day 1 until tumor progression or death from any cause. The date of progression was either the date of the image showing progression or the date of treatment termination in case one of the reasons for treatment termination was tumor progression (referring to clinical progression as assessed by the Investigator), whichever occurred first.
Overall survival (OS) was defined as the time from Day 1 until death from any cause. All patients were followed for survival during the follow-up assessments every 8 weeks. […]
The primary objective was to determine the maximum tolerated dose (MTD) and the dose-limiting toxicity (DLTs) of two cycles of trabedersen administered intravenously (i.v.) for 7 days (7 days on and 7 days off) or for 4 days every other week (4 days on and 10 days off). The secondary objectives included assessment of the potential antitumor activity of trabedersen administered i.v. at weekly intervals and for four days every other week, as assessed by survival. […]

For data set [5], the system named is C8161 human melanoma cells. Put plainly: C8161 melanoma xenograft model: tumor growth and survival.
Description: Sixty female athymic nude mice were intradermally inoculated with C8161 human melanoma cells and randomized into six groups of 10 mice. Three groups received monotherapy treatment with either OT-101 (trabedersen) (16 mg/kg) (Group 2) or Dacarbazine (DTIC; 1 or 10 mg/kg; Groups 3, 4). Two groups received combination therapy with OT-101/DTIC at 16/1 mg/kg or 16/10 mg/kg (Groups 5 and 6). Vehicle (0.9% saline, Groups 1, 3, and 4) and OT-101 were administered 3 times/week via subcutaneous injection. Vehicle (0.9% saline, Groups 1 and 2) and DTIC (1 or 10 mg/kg) were administered via intraperitoneal injection four times/week. All OT-101/Trabedersen treatments commenced at day 0 of the study and all DTIC treatments commenced on day 14. Mice were monitored for adverse effects, body weight and tumor size three times weekly. The tumor, lungs, liver and kidneys were excised from all mice at termination and weighed.

In the oligonucleotide strings, read from the 5' end, every base follows the letter of its sugar. An asterisk marks phosphorothioate; unmarked linkages are phosphodiester. Other units and linkages are bracketed, terminal groups are in braces. A string of capitals states the bases alone. d = 2'-deoxy (DNA)

Turning to “trabedersen: TGFβ2 specific phosphorothioate antisense oligodeoxynucleotide with the sequence 5′-CGGCATGTCTATTTTGTA-3′ (SEQ ID No: 1) (antisense dC*dG*dG*dC*dA*dT*dG*dT*dC*dT*dA*dT*dT*dT*dT*dG*dT*dA)”, in data set [1], the “cell proliferation (% proliferation of untreated control)” value is 53%. The “TGFβ2 expression (% of untreated control)” value was found to be 42% in the data set on TGFβ2 [2] and 54% in the data set with TGFβ2 [3]. Moreover, in the data set on WiDr colon cancer cells, the “cell proliferation (% of untreated control)” value amounted to 76%. For the same substance, the “lowest lethal dose (LLD)” value in data set [4] came to 300 mg/kg b.w. Besides, in the data set on melanoma (15 patients), the “Median progression free survival (PFS)” value is reported as 1.77 mos. Further, the “median OS” value in the data set with melanoma (all doses, 19 patients) is 11.4 mos. The OS in the data set on melanoma (trabedersen followed by subsequent chemotherapy (N=9)) is 13.70 mos; in the data set on melanoma (without subsequent chemotherapy (N=7)), 5.5 mos. The “Tumor growth suppressed relative to control group 1” value in data set [5] (day 42, group 2: OT-101 16 mg/kg s.c. 3 times/week from day 0) was 2%. Also, the median survival in data set [5] (group 2: OT-101 16 mg/kg, sacrifice at tumor size 2,000 mm^3) is 47 days.

For the origin of these results see patent publication US20170226518A1, “COMPOSITIONS AND METHODS FOR TREATING CANCER” (Autotelic LLC, priority 2016, published 2017).
